Measured values: patent publication US9320276B2, “N-hetarylmethyl pyrazolylcarboxamides” (BAYER INTELLECTUAL PROPERTY GMBH, priority 2010, dated 2016)

Legend:
[1] = test system: Uromyces appendiculatus; assay: in vivo preventive test on Uromyces appendiculatus (beans); conditions: 100 ppm of active ingredient, evaluated 10 days after inoculation
Procedure: (§1) Solvent: 24.5 parts by weight of acetone • 24.5 parts by weight of N,N-dimethylacetamide Emulsifier: 1 part by weight of alkylaryl polyglycol ether To produce a suitable preparation of active compound, 1 part by weight of active compound is mixed with the stated amounts of solvent and emulsifier, and the concentrate is diluted with water to the desired concentration. To test for preventive activity, young plants are sprayed with the preparation of active compound at the stated rate of application. After the spray coating has dried on, the plants are inoculated with an aqueous spore suspension of the causal agent of bean rust (Uromyces appendiculatus) and then remain for 1 day in an incubation cabinet at approximately 20° C. and a relative atmospheric humidity of 100%. The plants are then placed in a greenhouse at approximately 21° C. and a relative atmospheric humidity of approximately 90%. The test is evaluated 10 days after the inoculation. 0% means an efficacy which corresponds to that of the untreated control, while an efficacy of 100% means that no disease is observed.

[2] = test system: Puccinia triticina; assay: in vivo protective test on Puccinia triticina (wheat); conditions: 500 ppm of active ingredient, preventive, evaluated 8 days after inoculation
Procedure: Solvent: 49 parts by weight of N,N-dimethylacetamide Emulsifier: 1 part by weight of alkylaryl polyglycol ether To produce a suitable preparation of active compound, 1 part by weight of active compound or active compound combination is mixed with the stated amounts of solvent and emulsifier, and the concentrate is diluted with water to the desired concentration. To test for preventive activity, young plants are sprayed with the preparation of active compound or active compound combination at the stated rate of application. After the spray coating has been dried, the plants are sprayed with a spore suspension of Puccinia triticina. The plants remain for 48 hours in an incubation cabinet at approximately 20° C. and a relative atmospheric humidity of approximately 100%. The plants are placed in the greenhouse at a temperature of approximately 20° C. and a relative atmospheric humidity of approximately 80%. The test is evaluated 8 days after the inoculation. 0% means an efficacy which corresponds to that of the untreated control, while an efficacy of 100% means that no disease is observed.

[3] = test system: Botrytis cinerea; assay: in vivo protective test on Botrytis cinerea (beans); conditions: 100 ppm of active ingredient, preventive, lesion size 2 days after inoculation
Procedure: Solvent: 24.5 parts by weight of acetone • 24.5 parts by weight of N,N-dimethylacetamide Emulsifier: 1 part by weight of alkylaryl polyglycol ether To produce a suitable preparation of active compound, 1 part by weight of active compound is mixed with the stated amounts of solvent and emulsifier, and the concentrate is diluted with water to the desired concentration. To test for preventive activity, young plants are sprayed with the preparation of active compound. After the spray coating has dried on, 2 small pieces of agar covered with growth of Botrytis cinerea are placed on each leaf. The inoculated plants are placed in a darkened chamber at 20° C. and a relative atmospheric humidity of 100%. 2 days after the inoculation, the size of the lesions on the leaves is evaluated. 0% means an efficacy which corresponds to that of the untreated control, while an efficacy of 100% means that no disease is observed.

[4] = test system: Alternaria solani; assay: in vivo preventive test on Alternaria solani (tomato); conditions: 500 ppm of active ingredient, evaluated 7 days after inoculation
Method in brief: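 Young tomato plants were sprayed preventively with compound in DMF/alkylarylpolyglycolether diluted in water, then inoculated one day later with A. solani spores. Incubation was 1 day at about 22 °C and 100% RH, then about 20 °C and 96% RH. Efficacy was scored 7 days after inoculation (0% = untreated control, 100% = no disease).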

[5] = test system: Venturia inaequalis; assay: in vivo preventive test on Venturia inaequalis (apple scab); conditions: 100 ppm of active ingredient, evaluated 10 days after inoculation
Procedure: as §1, with “conidia” for “spore”, “apple scab (Venturia inaequalis)” for “bean rust (Uromyces appendiculatus)”

Structure (SMILES)	Efficacy [1] [%]	Efficacy [2] [%]	Efficacy [3] [%]	Efficacy [4] [%]	Efficacy [5] [%]
CC(C)c1nn(-c2ccccc2)c(Cl)c1CN(C(=O)c1c(C(F)F)nn(C)c1F)C1CC1 [Example 169]	100	100	100	100	
CC(c1cc2ccccc2o1)N(C(=O)c1c(C(F)F)nn(C)c1F)C1CC1 (racemic) [Example 70]	100		95	100	100
Cn1nc(C(F)F)c(C(=S)N(Cc2cccc3ccsc23)C2CC2)c1F [Example 95]	90	83		95	99
CC(c1cc(Cl)sc1Cl)N(C(=O)c1c(C(F)F)nn(C)c1F)C1CC1 (stereo not drawn) [Example 128]	100	100	100	100	100
Cc1sc(-c2ccccc2)cc1C(C)N(C(=O)c1c(C(F)F)nn(C)c1F)C1CC1 (stereo not drawn) [Example 147]	83		100	95	100
CC(c1cc2ccccc2s1)N(C(=O)c1c(C(F)F)nn(C)c1F)C1CC1 (racemic) [Example 80]		100	100		100
CC(c1cccc2ccsc12)N(C(=O)c1c(C(F)F)nn(C)c1F)C1CC1 (stereo not drawn) [Example 91]		100		95	100
